# In patent publication US20250075218A1, “HIF1A OR GLUT1 INHIBITION IN INFLAMMATORY SKIN DISEASES” (New York University, priority 2023, published 2025):
# Columns and labels:
# Type in all cases: in vivo, human
# [1] = tested on: HIF1A, IL17RA, and IL17RC; assay: Spatial transcriptomics of pre- and post-secukinumab lesional and non-lesional skin; details: following therapy, 12 weeks; one patient
# Excerpt: IL-17A blocking therapies are lauded for their clinical success, often achieving complete remission of skin plaques within 6 months of treatment (Ghoreschi et al., 2021). This remarkable clinical response provided a unique opportunity to examine if HIF1α levels normalize with successful therapy. Therefore, pre- and post-treatment biopsies were obtained from a secukinumab (anti-IL-17A) treated PsO patient who achieved complete clinical remission (Psoriatic Area and Severity Score (PASI) 100, or 100% psoriasis plaque clearance) (FIG. 3A and Table 1). […]
# When compared to contralateral non-lesional skin, the PsO lesion was enriched for HIF1A, IL17RA, and IL17RC (FIGS. 3B and 8H). […] As a complementary analysis, HIF1α protein expression was measured in a cohort of 10 patients treated with etanercept (anti-TNFα) that achieved response (PASI 75 or greater) at 12 weeks (Table 2) (Stinco et al., 2019). […]
# Spatial transcriptomics. […] Spot selection and image alignment: Following probe cleavage, fluorescent images were taken on a Hamamatsu NanoZoomer whole slide fluorescence scanner. […] The Space Ranger mkfastq function was used for sample demultiplexing and converting spatial barcodes and reads into FASTQ format. […]
# [2] = tested on: HIF1α-inhibitor downregulated gene signature; assay: Transcriptional program response analyses to clinical trial data (GSVA, NCT01537432); details: baseline and 1, 4, 12 weeks of secukinumab or placebo
# Excerpt: The dramatic transcriptional response following BAY 87-2243 treatment prompted investigation of the role of HIF1α-modulated genes on PsO disease pathogenesis. Toward this end, HIF1α-modulated genes were projected onto a longitudinal analysis of the transcriptional response from 33 patients following either placebo (9 patients) or anti-IL-17A blocking (secukinumab) therapy (24 patients) (NCT01537432) (Krueger et al., 2019).
# Transcriptional program response analyses to clinical trial data. Scoring methods: To evaluate if gene signatures derived from differential gene expression in human biopsy cultures or topical HIF1α inhibitor treatment in IMQ-treated murine model would be affected by anti-IL17 treatment, the genes down regulated by HIF1α inhibitor (HIF1α-signature) were projected into the longitudinal gene expression profiles of 31 psoriasis patients enrolled in a randomized clinical trial testing the efficacy of Secukinumab 300 mgs (n=22) versus Placebo (n=9) (Krueger et al., 2019). The overall expression/activity of the signatures was estimated using gene set variation analysis (GSVA). GSVA, a non-parametric and non-supervised method, estimated a sample-wise enrichment score for each gene set on the RCT cohorts. Such enrichment scores, representing overall gene set activity, were then modeled to evaluate the treatment effect and the association with treatment response. […]
# [3] = tested on: PsO patient; assay: Clinical metadata of pre- and post-secukinumab-treated patient
# Excerpt: IL-17A blocking therapies are lauded for their clinical success, often achieving complete remission of skin plaques within 6 months of treatment (Ghoreschi et al., 2021). This remarkable clinical response provided a unique opportunity to examine if HIF1α levels normalize with successful therapy. Therefore, pre- and post-treatment biopsies were obtained from a secukinumab (anti-IL-17A) treated PsO patient who achieved complete clinical remission (Psoriatic Area and Severity Score (PASI) 100, or 100% psoriasis plaque clearance) (FIG. 3A and Table 1). Pre- and 12-weeks post-therapy biopsies from both lesional and non-lesional skin were taken <0.5 cm apart from the same patient, ensuring that post-treatment biopsies were taken from resolved lesions and not adjacent uninvolved skin (FIG. 8A).
# Human skin samples. Following anesthetization with 2% lidocaine injection, 4 mm full-thickness punch biopsies were performed on lesional skin, and matched non-lesional skin located contralaterally. In healthy volunteers, skin biopsy samples were obtained from the trunk and/or extremities. Post-therapy biopsies from secukinumab-treated patients were taken 5 to 10 mm away from the original biopsy site within the original lesion area, discerned by hyperpigmentation, and at contralateral non-lesional skin.
# [4] = post-treatment, 12 weeks, one patient (ST-15), pre-treatment value 5
substance,measurement,setting,value
secukinumab,"expression of HIF1A, IL17RA, and IL17RC in resolved skin (post-treatment L)",[1],comparable to that of non-lesional skin
same,"GSVA score of gene signature downregulated by HIF1α inhibitor, treatment group vs placebo",[2],significantly distinguished
same,"psoriasis plaque clearance (PASI 100, complete clinical remission)",[3]; one secukinumab-treated PsO patient,100%
same,Body surface area (BSA) with psoriasis (%),"[3]; post-treatment, 12 weeks post-therapy, one patient (ST-15; AL and ANL samples), pre-treatment value 8",0%
same,Deformity,"[3]; post-treatment, 12 weeks, one patient (ST-15), pre-treatment value 0",0
same,Enthesitis,"[3]; post-treatment, 12 weeks, one patient (ST-15), pre-treatment value 1",0
same,Dactylitis,"[3]; post-treatment, 12 weeks, one patient (ST-15), pre-treatment value 4",0
same,PASI,[3]; [4],0
same,Phys GA (global),[3]; [4],1
same,Swollen joint count (SJC),"[3]; post-treatment, 12 weeks, one patient (ST-15), pre-treatment value 11",0
same,Tender joint count (TJC),"[3]; post-treatment, 12 weeks, one patient (ST-15), pre-treatment value 12",0
